{"source": "patent US20030170250A1", "about": "“Local delivery of long lasting therapeutic agents” (priority 1998, published 2003)", "system": "carotid artery", "assay": "In vivo addition of NHS-Rhodamine: local incubation in isolated carotid artery chamber, fluorescence of the artery", "set-up": "species or system New Zealand rabbits", "conditions": "100 μl of 500 μM, 3 minutes incubation in 1-cm chamber, washed with 0.9% sodium chloride", "method": "Both carotid arteries were isolated and blood flows were measured. A catheter (22G) was inserted in the arterial segment and rinsed with 0.9% sodium chloride via catheter until there was no more visible evidence of blood in the segment.\nA 1-cm incubation chamber was created by ligatures in the segment area. The incubation chamber was flushed three times with 1 mL of 0.9% sodium chloride. A solution of 100 μl of 500 μM NHS-Rhodamine was prepared and incubated in the incubation chamber for 3 minutes. The excess of rhodamine was withdrawn with a 1 mL syringue. The incubation chamber was washed once again with 3 times […] of 0.9% sodium chloride. The incubation chamber was then removed from the rabbit, cut in three pieces and dipped in 10% formalin for further evaluation.", "data": [{"substance": "Rhodamine", "values": [{"measurement": "fluorescence of treated arteries", "value": "little fluorescence over background"}]}, {"substance": "Rhodamine Green™-X, succinimidyl ester, hydrochloride mixed isomers [NHS-Rhodamine]", "values": [{"measurement": "fluorescence of treated arteries", "value": "dramatic levels of fluorescence"}]}]}
